Experimental data published in EP4707280A1, “1,4-CINEOLE DERIVATIVE AND INTERMEDIATE THEREOF, HERBICIDE CONTAINING SAID DERIVATIVE AS ACTIVE INGREDIENT, METHOD FOR USING HERBICIDE, AND METHOD FOR PREPARING AGROCHEMICAL COMPOSITION” (HOKKO CHEMICAL INDUSTRY CO., LTD., priority 2023, dated 2024).

Legend:
Assay type in all cases: in vivo
Amaranthus viridis [1] = assay: Test Example 7: herbicidal effect test by soil application in upland field (low dose); conditions: 7.5 g per 10 ares, sprayed one day after sowing, upland soil, 14 days after application, read-out: weed inhibition rate
Chenopodium album [2] = assay: Test Example 4: herbicidal effect test by stem and leaf treatment in upland field; conditions: 120 g per 10 ares, sprayed seven days after sowing, upland soil, 14 days after application, read-out: weed inhibition rate
Lindernia pyxidaria [3] = assay: Test Example 2: herbicidal effect test by application during growth period of paddy rice; conditions: 120 g per 10 ares, applied seven days after sowing, flooded pots, 14 days after application, read-out: weed inhibition rate
Summary of the method: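 Steps: puddle fertilized paddy soil; sow 30 seeds of each weed at 0–1 cm; flood to roughly 3 cm and keep in a glasshouse; at day 7 drop in diluted emulsifiable concentrate (120 g a.i. per 10 ares); score inhibition (%) 14 days later, two replicates.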

Chenopodium album [4] = assay: Test Example 7: herbicidal effect test by soil application in upland field (low dose); conditions: 7.5 g per 10 ares, sprayed one day after sowing, 14 days after application, read-out: weed inhibition rate
Summary of the method: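 Upland soil (alluvial loam) pots, seeds mixed into top 1 cm layer → EC formulation diluted with water, sprayed onto soil 1 d post-sowing, 100 L/10 a → 7.5 g a.i./10 a → inhibition (%) scored at 14 d, n=2.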

Lindernia pyxidaria [5] = assay: Test Example 1: herbicidal effect test by soil application in paddy rice; conditions: 336 h, 120 g active ingredient per 10 ares, applied immediately after sowing, flooded pots, 14 days after application, read-out: weed inhibition rate
Summary of the method: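 Inhibition rate (%) read 14 days after treatment, duplicate pots. Water-diluted emulsifiable concentrate was applied by dropper at 120 g active ingredient/10 ares right after sowing. Seeds (30 per species, 0–1 cm deep) went into puddled paddy soil kept flooded at about 3 cm in a greenhouse.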

Chenopodium album [6] = assay: Test Example 8: herbicidal effect test by stem and leaf treatment in upland field (low dose); conditions: 7.5 g per 10 ares, sprayed seven days after sowing, upland soil, 14 days after application, read-out: weed inhibition rate
Summary of the method: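 Duplicate alluvial-loam pots (36 cm^2), seeded in the top 1 cm and grown seven days, were sprayed with diluted emulsifiable concentrate at 7.5 g a.i. per 10 ares (100 L per 10 ares). Percent inhibition was assessed at 14 days post-treatment.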

[7] = test system: Echinochloa crus-galli var. formosensis at the three-leaf stage; assay: Comparative Example: herbicidal effect test by application during growth period of paddy rice (three-leaf stage, Table 7); conditions: 504 h, active ingredient 7.5 g per 10 ares, emulsifiable concentrate applied by dropper to flooded pots, 21 days after chemical application, triplicate, read-out: Weed inhibition rate (%)
Description: As an example, the herbicidal effect on Echinochloa crus-galli var. formosensis at the three-leaf stage was confirmed by the following method, and the results are specifically shown in Table 7 as a comparative example.
Wagner pots with an area of […] were filled with paddy soil, followed by addition of water and incorporation of chemical fertilizer (N:P:K = 16:16:16), after which puddling was performed. After that, 30 seeds of Echinochloa crus-galli var. formosensis were sown at a depth of 0 cm to 1 cm. Immediately after sowing, the pots were flooded and a water depth of approximately 3 cm was maintained. Subsequent management was conducted in a glass greenhouse. When Echinochloa crus-galli var. formosensis reached the three-leaf stage, an emulsifiable concentrate prepared according to Formulation Example 5 using the compound shown below was diluted with water, and a specified amount of the diluted solution was applied by dropper. The amount of the active ingredient to be applied was equivalent to 7.5 g per 10 ares. The test was conducted in triplicate for each chemical concentration group, and the weed inhibition rate (%) was determined 21 days after chemical application using the following formula (Math. 1).

Amaranthus viridis [8] = assay: Test Example 4: herbicidal effect test by stem and leaf treatment in upland field; conditions: 120 g per 10 ares, sprayed seven days after sowing, upland soil, 14 days after application, read-out: weed inhibition rate
Summary of the method: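 Post-emergence spray, 7 days after sowing: diluted emulsifiable concentrate at 100 liters per 10 ares delivering 120 g active ingredient per 10 ares. Weeds grown from seed mixed into the top 1 cm of alluvial loam. Inhibition (%) by formula at 14 days; duplicates.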

Lindernia pyxidaria [9] = assay: Test Example 5: herbicidal effect test by soil application in paddy rice (low dose); conditions: 336 h, 7.5 g per 10 ares, applied immediately after sowing, flooded pots, 14 days after application, read-out: weed inhibition rate
Summary of the method: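 Flooded-paddy soil application at low dose (7.5 g a.i. per 10 ares), given by dropper as diluted emulsifiable concentrate directly after sowing weeds 0–1 cm deep. Effect evaluated after 14 days in duplicate.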

| Structure (SMILES) | inhibition at 75 g/ha (Amaranthus viridis [1]) [%] | inhibition at 1200 g/ha (Chenopodium album [2]) [%] | inhibition at 1200 g/ha (Lindernia pyxidaria [3]) [%] | inhibition at 75 g/ha (Chenopodium album [4]) [%] | pest or weed control at 1200 g/ha (Lindernia pyxidaria [5]) [%] | inhibition at 75 g/ha (Chenopodium album [6]) [%] | inhibition at 75 g/ha [7] [%] | inhibition at 1200 g/ha (Amaranthus viridis [8]) [%] | inhibition at 75 g/ha (Lindernia pyxidaria [9]) [%] |
| --- | --- | --- | --- | --- | --- | --- | --- | --- | --- |
| C=C1C[C@]2(C)O[C@@]1(C(C)C)C[C@H]2OCc1ccccc1F [2-88, (1R,4S,5R)-5-((2-fluorobenzyl)oxy)-1-isopropyl-4-methyl-2-methylene-7-oxabicyclo[2.2.1]heptane] | ≥ 80 | ≥ 80 | ≥ 80 | ≥ 80 | ≥ 80 | ≥ 80 | 80 | – | – |
| C=CCO[C@@H]1C[C@]2(C)O[C@@]1(C(C)C)C[C@H]2OCc1ccccc1F [1-930, (1S,2R,4R,5R)-2-[(2-fluorophenyl)methoxy]-1-methyl-4-isopropyl-5-prop-2-enoxy-7-oxabicyclo[2.2.1]heptane] | ≥ 80 | ≥ 80 | ≥ 80 | ≥ 80 | ≥ 80 | ≥ 80 | – | ≥ 80 | ≥ 80 |
| CC(C)[C@]12C=C[C@](C)(O1)C(OCc1ccccc1F)C2 (mixture of isomers) [3-5, (1R,4S,SR)-5-[(2-fluorophenyl)methoxy]-4-methyl-1-isopropyl-7-oxabicyclo[2.2.1]hept-2-ene] | – | ≥ 80 | ≥ 80 | – | ≥ 80 | ≥ 80 | 82 | ≥ 80 | – |
| CC(C)[C@]12C[C@@H](OCc3ccccc3F)[C@](C)(CC1C)O2 (stereo partly drawn) [1-92, (1S,2R,4R)-2-((2-fluorobenzyl)oxy)-4-isopropyl-1,5-dimethyl-7-oxabicyclo[2.2.1]heptane] | – | ≥ 80 | – | – | – | ≥ 80 | 100 | ≥ 80 | – |
| Cc1ccccc1CO[C@@H]1C[C@]2(C(C)C)O[C@@]1(C)C[C@@H]2F [1-2, (1R,2S,4S,5R)-2-fluoro-1-isopropyl-4-methyl-5-((2-methylbenzyl)oxy)-7-oxabicyclo[2.2.1]heptane] | – | ≥ 80 | ≥ 80 | – | – | ≥ 80 | 94 | ≥ 80 | – |
| C#CCO[C@@H]1C[C@]2(C)O[C@@]1(C(C)C)C[C@H]2OCc1ccccc1F [1-931, (1S,2R,4R,5R)-2-[(2-fluorophenyl)methoxy]-1-methyl-4-isopropyl-5-prop-2-ynoxy-7-oxabicyclo[2.2.1]heptane] | ≥ 80 | ≥ 80 | ≥ 80 | – | ≥ 80 | – | – | ≥ 80 | ≥ 80 |
| CC(C)[C@]12C[C@@H](OCc3ccccc3F)[C@](C)(CC1OCC1CC1)O2 (mixture of isomers) [1-921, (1S,2R,4R,SR)-5-(cyclopropylmethoxy)-2-[(2-fluorophenyl)methoxy]-1-methyl-4-isopropyl-7-oxabicyclo[2.2.1]heptane] | ≥ 80 | ≥ 80 | ≥ 80 | ≥ 80 | ≥ 80 | ≥ 80 | – | ≥ 80 | ≥ 80 |
| CC(C)[C@]12C[C@@H](OCc3c(F)cccc3F)[C@](C)(C[C@@H]1F)O2 [1-7, (1S,2R,4R,5S)-2-((2,6-difluorobenzyl)oxy)-5-fluoro-4-isopropyl-1-methyl-7-oxabicyclo[2.2.1]heptane] | ≥ 80 | ≥ 80 | – | ≥ 80 | ≥ 80 | – | 100 | – | – |
| C=C1C[C@]2(C)O[C@@]1(C(C)C)C[C@H]2OCc1ccccc1C [2-72, (1R,4S,5R)-1-isopropyl-4-methyl-5-((2-methylbenzyl)oxy)-2-methylene-7-oxabicyclo[2.2.1]heptane] | ≥ 80 | ≥ 80 | ≥ 80 | ≥ 80 | ≥ 80 | ≥ 80 | – | – | – |
| CC(C)[C@]12C[C@@H](OCc3c(F)cccc3F)[C@](C)(CC1=O)O2 [2-20, (1R,4S,5R)-5-((2,6-difluorobenzyl)oxy)-1-isopropyl-4-methyl-7-oxabicyclo[2.2.1]heptan-2-one] | – | – | ≥ 80 | – | – | – | – | ≥ 80 | ≥ 80 |
